Data from patent publication US10196356B2, “Mixed disulfide conjugates of thienopyridine compounds and uses thereof” (The Regents of the University of Michigan, priority 2013, dated 2019).
Values belong to the compound of their own block, whether it stands above or below them.

Tests used:
[1] = Kinetics for the reduction of the mixed disulfide conjugates of clopidogrel by GSH (conversion to the AM); assay type: in vitro ADME; details: for first order rate constant for the loss of the mixed disulfide conjugate: 0.2 mg/ml cytosol, 37° C.; for second order rate constant for the loss of the conjugate: equivalent from pseudo first order with 1 mM GSH, with cytosol
Experimental: The mixed disulfide conjugates were prepared from the reaction mixtures containing 1 mg/ml HLM, 0.1 mM 2-oxoclopidogrel, the NADPH-regenerating system and various thiol reductants and purified using SPE C18 cartridges as described in Materials and Methods. The purified conjugates were then mixed with 1 mM GSH and 0.2 mg/ml cytosol (when present). The conjugate remaining and the AM formed were analyzed using LC-MS/MS. Legend: (A) reduction of the conjugates of BME (◯), CPT (▪), NAC (▾), DFT (▴), and NPT (□) by 1 mM GSH in the presence of 0.2 mg/ml cytosol. (B) reduction of the CPT conjugate by 1 mM GSH in the presence and absence of 0.2 mg/ml cytosol. Legend: (◯), formation of AM in the absence of cytosol; (Δ), formation of the AM in the presence of cytosol; (●), reduction of the conjugate in the absence of cytosol; (▴), reduction of the conjugate in the presence of cytosol. The solid and dashed lines are non-linear curve fittings to a single exponential function.
To examine the reactivity of the mixed disulfide conjugates, the kinetics for the reduction of the mixed disulfide conjugates by GSH were determined. The mixed disulfide conjugates were generated in 1 ml of 50 mM KPi buffer (pH 7.4) buffer containing 1 mg/ml HLM, 0.1 mM 2-oxoclopidogrel and 0.3 or 1 mM thiol reductants. The reaction was incubated at 37° C. for 50 min after initiated by the addition of G6PD. The reaction mixture was then centrifuged at 13,000×g to remove the HLMs and the supernatant was loaded to a pre-conditioned SPE cartridge (C18, 100 mg/1 ml, Agilent Technologies, CA) and the mixed disulfide conjugate was eluted with 2 ml of methanol. The eluent was then dried using a Speedvac concentrator and the dried sample was stored at −80° C. until use. Prior to the kinetic measurements, the dried samples were first re-dissolved in 0.5 ml of 50 mM KPi buffer (pH 7.4) and then equilibrated at 37° C. for 5 min. Small aliquots (1-5 μl) of stock GSH and cytosol (when present) solutions were added to the conjugate samples at 1 mM and 0.2 mg/ml, respectively, to initiate the thiol-disulfide exchange reaction. At designated times, an aliquot of 50 μl of the reaction mixture was withdrawn and mixed with 25 μl of 10% acetic acid in acetonitrile to terminate the thiol-disulfide exchange reaction. The t=0 sample was prepared immediately prior to the addition of GSH. The amounts of the mixed disulfide conjugates and the AM were analyzed using LC-MS/MS as described above.

[2] = tested on: platelets (P2Y12 receptor); experiment: Ex vivo anti-platelet activity of the mixed disulfide conjugates (ADP-induced aggregation, aggregometer); assay type: cell-based, New Zealand white rabbits; details: 10 μM ADP; for inhibition of platelet aggregation, conjugate itself: not treated with GSH
Experimental: The mixed disulfide conjugates were prepared and purified from the reaction mixtures in the presence of 0.3 mM CPT and NPT, along with three control samples containing either 1 mM GSH, no thiol reductant or no G6PD. All samples were re-suspended in 0.5 ml PPP, some of which were treated to 1 mM GSH to release the AM. Platelet aggregation was initiated by the addition of 10 μM ADP and recorded with an aggregometer. The percentage of aggregation was normalized to that of PRP and averaged over four separate measurements. For details, see Materials and Methods. Legend: PRP, untreated platelet-rich plasma; GSH, 1 mM GSH in PRP; −G6PD, metabolites produced in the absence of G6PD; —SH, metabolites produced in the absence of any thiol reductants; GSH, metabolites produced in the presence of 1 mM GSH; CPT, metabolites produced in the presence of 0.3 mM CPT; CPT+GSH, metabolites produced in the presence of 0.3 mM CPT and then treated with 1 mM GSH; NPT, metabolites produced in the presence of 0.3 mM NPT; NPT+GSH, metabolites produced in the presence of 0.3 mM NPT and then treated with 1 mM GSH.
In order to generate sufficient quantities of the mixed disulfide conjugates, the metabolism of 2-oxoclopidogrel was performed in 2-ml reaction mixtures containing 1 mg/ml HLM, 0.1 mM 2-oxoclopidogrel, the NADPH-regenerating system, and 0.3 mM CPT or NPT or 1 mM GSH. The reaction was initiated by the addition of 10 units G6PD and incubated at 37° C. for 50 min. Two control samples were prepared in parallel. […] After an incubation of 50 min, the reaction mixtures were centrifuged at 13,000×g to remove the HLMs. The supernatants were loaded onto SPE C18 cartridges to enrich the mixed disulfide conjugates. After extensive washing with water to remove salts and other water-soluble metabolites, the conjugate samples were eluted with 2 ml of methanol. The methanolic fractions were dried using a Speedvac concentrator and the dried samples were then re-suspended in 1 ml of platelet-poor plasma (PPP). Prior to the anti-platelet activity assays, the re-suspended conjugates were divided into two equal volumes (0.5 ml each), one of which was treated with 1 mM GSH at 37° C. for 30 min to generate the AM. Both samples were then placed on ice until use.
The procedures used to determine ex vivo anti-platelet activity were previously reported (see, e.g., Abell L M and Liu E C (2011) J Pharm Exp Ther 339(2):589-596).
Male New Zealand white rabbits (2.2-2.9 kg) were used as blood donors. Whole blood was drawn from a central ear artery into a plastic syringe containing 3.7% sodium citrate as the anticoagulant (1:10 volume ratio of citrate to blood). A whole blood cell count was determined with a Medonic CA620 hematology analyzer (Clinical Diagnostic Solutions, Inc., Plantation, Fla., USA). Platelet-rich plasma (PRP), the supernatant present after centrifugation of whole blood at 100×g for 10 min, was diluted with PPP to achieve a platelet count of approximately 300,000/μl. Platelet-poor plasma was prepared by centrifuging the remaining blood at 1,500×g for 10 min and discarding the bottom cellular layer. The diluted PRP was divided into 0.5 ml samples, centrifuged again at 170×g for 10 mins, and the resulting supernatant was discarded. The platelet pellets were re-suspended in platelet-poor plasma containing the various chemical inhibitors prepared as described previously and incubated with gentle shaking at 37° C. for 60 min to modify the P2Y12 receptor. Ex vivo platelet aggregation was assessed by established nephelometric methods with the use of a 4-channel aggregometer (BioData PAP-4; BioData Corp., Horsham, Pa., USA) by recording the increase in light transmission through a stirred suspension of PRP maintained at 37° C. Platelet aggregation was induced with ADP (10 μM). A subaggregatory concentration of epinephrine (550 nM) was used to prime the platelets before addition of the agonist.

platelets = experiment: Platelet aggregation assay with conjugates pre-incubated with GSH (Example III); assay type: cell-based, rabbits; details: 5 μM ADP; for inhibition of platelet aggregation: conjugate incubated with 1 mM GSH 37° C. 30 min, compared with negative control without conjugate
Experimental: Approximately 20 ml blood was drawn from rabbits and platelets were collected by centrifugation whereas the supernatants were collected as platelet poor plasma (PPP). Prior to the inhibition assay, the conjugates of Clop-CPT and Tic-NPT were dissolved in 0.5 ml PPP and incubated with 1 mM GSH at 37° C. for 30 min to produce the active metabolite. The platelets were then re-suspended gently in the PPP containing the active metabolite. After incubation at 37° C. for one hour, platelet aggregation was initiated by the addition of 5 μM of the agonist ADP. Platelet aggregation was then recorded using an aggregometer.

[3] = conjugate treated with 1 mM GSH 37° C. 30 min, normalized to PRP
[4] = 1 mM GSH, in the absence of cytosol
[5] = 1 mM GSH, in the presence of cytosol (FIG. 5B)

SMILES: COC(=O)C(c1ccccc1Cl)N1CCC(SSc2ncccc2[N+](=O)[O-])C(=CC(=O)O)C1 (stereo not drawn) [NPT conjugate]
- first order rate constant for the loss of the mixed disulfide conjugate ([1]; 1 mM GSH): 0.13 min⁻¹
- second order rate constant for the loss of the conjugate [1]: 2.2 M⁻¹ s⁻¹
- inhibition of platelet aggregation [2, 3]: ~70%
- inhibition of platelet aggregation, conjugate itself ([2]; normalized to PRP): did not inhibit platelet aggregation

SMILES: COC(=O)C(c1ccccc1Cl)N1CCC(SSCC(NC(C)=O)C(=O)O)C(=CC(=O)O)C1 (stereo not drawn) [NAC conjugate]
- first order rate constant for the loss of the mixed disulfide conjugate ([1]; 1 mM GSH): 0.43 min⁻¹
- second order rate constant for the loss of the conjugate [1]: 7.2 M⁻¹ s⁻¹

SMILES: COC(=O)[C@H](c1ccccc1Cl)N1CCC(SSc2cc(C)oc2C)C(=CC(=O)O)C1 (stereo partly drawn) [DFT conjugate]
- first order rate constant for the loss of the mixed disulfide conjugate ([1]; 1 mM GSH): 1.65 min⁻¹
- second order rate constant for the loss of the conjugate [1]: 28 M⁻¹ s⁻¹

SMILES: COC(=O)[C@H](c1ccccc1Cl)N1CCC(S)/C(=C\C(=O)O)C1 (stereo partly drawn) [AM, reference compound]
- level of inhibition of platelet aggregation relative to the conjugates (platelets; positive control: active metabolite generated from HLMs): approximately the same
- inhibition of platelet aggregation ([2]; sample from HLM reaction mixture containing 1 mM GSH (AM, estimated 1-4 μM)): ~60%

SMILES: O=C(O)/C=C1/CN(Cc2ccccc2Cl)CCC1SSc1ncccc1[N+](=O)[O-] (stereo not drawn) [Tic-NPT, (Z)-2-(1-(2-chlorobenzyl)-4-((3-nitropyridin-2-yl)disulfanyl)piperidin-3-ylidene)acetic acid]
- inhibition of platelet aggregation (platelets): approximately 60%

SMILES: COC(=O)[C@H](c1ccccc1Cl)N1CCC2SC(=O)C=C2C1 (stereo partly drawn) [2-oxoclopidogrel, reference compound]
- inhibition of platelet aggregation ([2]; −G6PD control (non-metabolite components of the reaction mixture)): did not inhibit platelet aggregation

- conjugate remaining after incubation ([1]; 40 min, 1 mM GSH, cytosol): ~50%
SMILES: COC(=O)[C@H](c1ccccc1Cl)N1CCC(SSCCO)C(=CC(=O)O)C1 (stereo partly drawn) [BME conjugate]
- first order rate constant for the loss of the mixed disulfide conjugate ([1]; 1 mM GSH): 0.07 min⁻¹
- second order rate constant for the loss of the conjugate [1]: 1.2 M⁻¹ s⁻¹

SMILES: COC(=O)C(c1ccccc1Cl)N1CCC(SSc2ccc(Cl)nn2)/C(=C\C(=O)O)C1 (stereo not drawn) [Clop-CPT]
- first order rate constant for the loss of the mixed disulfide conjugate ([1]; 1 mM GSH): 0.79 min⁻¹
- rate constant for the formation of the AM [1, 4]: 0.35 min⁻¹
- rate constant for the reduction of the conjugate [1, 4]: 0.39 min⁻¹
- rate constant for the formation of the AM [1, 5]: 0.50 min⁻¹
- rate constant for the reduction of the conjugate [1, 5]: 0.73 min⁻¹
- second order rate constant for the loss of the conjugate [1]: 13 M⁻¹ s⁻¹
- inhibition of platelet aggregation (platelets): approximately 60%
- inhibition of platelet aggregation [2, 3]: ~50%
- inhibition of platelet aggregation, conjugate itself ([2]; normalized to PRP): did not inhibit platelet aggregation
